Experimental data taken from patent US6313104A, “Organoprotective solutions” (Abbott Laboratories, priority 1999, dated 2001).
“Also recorded” adds a separate entry of the source.

Tests used:
MHC class I [1] = test: IFN-γ-induced MHC class I expression on PTEC, flow cytometry; format: cell-based
Method: (§1) Proximal tubular epithelial cells were cultured according to the methods described by Detrisac et al. (25). In short: PTEC were grown on tissue culture flasks that had been coated with collagen I (Sigma St. Louis Mo.) and Foetel Calf Serum (FCS, from Gibco BRL). The culture medium consisted of Dulbeco's eagle's medium and Ham's medium (both from Gibco BRL) in a 1:1 ratio, supplemented with insulin ([…]), transferrin (5 μg/ml), selenium (5 ng/ml), hydrocortisone (36 ng/ml), triiodothyronine (4 pg/ml) epidermal growth factor (10 ng/ml), and penicillin/streptomycin (5 IE/ml, 5 μg/ml) (all from Sigma). The cell lines were acquired from multiple sources including biopsy tissue pretransplant, allografts unsuitable for transplantation and from grossly normal surgical nephrectomy specimens. Experiments were performed using cells from passages one to four. PTEC were characterized by positive staining for the epithelial membrane antigen (EMA, Dako Glostrup Denmark) and the adenosinedeaminase binding protein (kindly provided by Dr. Dinjens, University Hospital Maastricht, the Netherlands).
(§2) Confluent monolayers of PTEC or HUVEC were trypsinized and seeded in 24-well plates. Upon confluency the cells were stimulated with IFN-γ (Sigma, St. Louis Mo.) for […] in the presence or absence various concentrations of heparinoids in various Heparin (Heparin-Braun®) was purchased from Braun Melsungen (Melsungen, Germany), low molecular weight heparin (Fragmin® P) from Pfrimmer Kabi (Erlangen, Germany), and modified low molecular weight heparins (Knoll AG Ludwigshafen, Germany).
(§3) In some experiments the culture medium was supplemented with sodium chlorate in order to inhibit sulfation of cellbound HSPG. Chlorate was used in concentrations between 50 to 150 mM for 24 hours before addition of IFN-γ and was present during the stimulation period. Sodium chloride was used as osmolarity control. Cultured cells were recovered by brief treatment with trypsin-EDTA for flow cytometry analysis.
(§4) Cells were pooled, divided into two tubes and washed. Isotype matched irrelevant antibodies conjugated to RPE and FITC (from Dako, Glostrup, Denmark) and Cy-5 (from Dianowa, Hamburg, Germany) were added to the first tube which was used as negative control for the FACS settings. Cells from the second tube were labelled with antibodies against MHC class I (RPE-conjugated, W6, 32, Dako), MHC class II (Cy-5-conjugated, CR3/43, Dianova) and ICAM 1 (FITC-conjugated, Dianova) in concentrations according to the instructions of the manufacturer. After incubation for 30 min at 4° C. the cells were washed and analysed by flow cytometry (FACScan, Becton Dickinson); a minimum of 10000 event were analysed. The results are expressed as mean fluorescence intensity (MFI).

MHC class II [2] = test: IFN-γ-induced MHC class II expression on PTEC, flow cytometry; format: cell-based
Method: as §1, §2, §3, §4

ICAM-1 [3] = test: IFN-γ-induced ICAM-1 expression on PTEC, flow cytometry; format: cell-based
Method: as §1, §2, §3, §4

MHC class I [4] = test: IFN-γ-induced MHC class I expression on HUVEC, flow cytometry; format: cell-based, Human; conditions: for upregulation of MHC class I by IFN-γ: HUVEC, 72 hours
Method: (§5) Human umbilical vein endothelial cells were prepared from fresh umbilical cord using the methods described by Jaffe et al (26). Briefly, endothelial cells were isolated from umbilical veins by digestion with collagenase V (Sigma, St. Louis Mo.) for 20 minutes at 37° C. Thereafter the vein was flushes with sterile medium to collect endothelial cells. The culture medium consisted of Medium 199 (Gibco BRL) supplemented with 1% FCS, Endothelial Cell Growth Factor and antibiotics (penicillin-streptomycin). The cells were cultured in 25 cm^2 flasks that had been coated with 1% gelatine (Sigma, St. Louis Mo.).
(§6) All experiments were performed with cells from passage three to six. HUVEC were characterized on the basis of positive staining for factor VIII-related antigen (Dako, High Wycombe, UK) and the endothelial marker EN4 (CD31).
as §2, §4

MHC class II [5] = test: IFN-γ-induced MHC class II expression on HUVEC, flow cytometry; format: cell-based, Human; conditions: for induction of MHC class II by IFN-γ: HUVEC, 72 hours
Method: as §5, §6, §2, §4

ICAM-1 [6] = test: IFN-γ-induced ICAM-1 expression on HUVEC, flow cytometry; format: cell-based, Human; conditions: for upregulation of ICAM-1 by IFN-γ: HUVEC, 72 hours
Method: as §5, §6, §2, §4

^125 I-IFN-γ = test: Dotblot analysis: binding of 125I-IFN-γ to GAG on nitrocellulose; conditions: 1 μl of 1 mg/ml on nitrocellulose, 1 hour at 4° C.
Method: Small strips of nitrocellulose membranes were prepared and 1 μl of heparin, fragmin and the carious GAGS (all in a concentration of 1 mg/ml) were applied onto the strip. After air drying, the strips were fixed in 1% glutaraldehyde +0.5% cetylpyridinium chloride to prevent GAG loss and washed in Tris buffer. The non-occupied protein binding sites were blocked with 5% BSA in PBS for 30 min at 37° C. The strips were subsequently incubated with ^125 I IFN-γ for 1 hour at 4° C. in the presence or absence of heparin. Hereafter the strips were extensively washed with Tris buffer and exposed to a Kodak film.

[7] = PTEC, 150 mM NaClO3 from one day before and during stimulation, IFN-γ 0 to 10 ng/ml, 72 hours
[8] = 50 ng/ml of IFN-γ, 72 hours, no GAG
[9] = 10 ng/ml IFN-γ, test substance 3 mg/ml
[10] = 100 ng/ml IFN-γ, heparin 0.03 to 3 mg/ml
[11] = PTEC, 10 ng/ml IFN-γ, 72 hours, test substance 0.03 mg/ml
[12] = PTEC, 10 ng/ml IFN-γ, 72 hours, test substance 3 mg/ml

## [Na+].[O-][Cl+2]([O-])[O-] [NaClO3, sodium chlorate]
MHC class I [1]; [7]
  modulation of MHC class I expression by IFN-γ in comparison to NaCl treated cultures: significantly reduced
MHC class II [2]; [7]
  modulation of MHC class II expression by IFN-γ in comparison to NaCl treated cultures: significantly reduced
ICAM-1 [3]; [7]
  modulation of ICAM-1 expression by IFN-γ in comparison to NaCl treated cultures: significantly reduced

## IFN-γ: IFN-γ (Sigma), stimulus for MHC and ICAM-1 expression
MHC class I [1]; [8]
  MHC class I expression on PTEC: upregulated
MHC class II [2]; [8]
  MHC class II expression on PTEC: induced
ICAM-1 [3]; [8]
  ICAM-1 expression on PTEC: upregulated

## heparin
MHC class I [4]; [9]
  upregulation of MHC class I by IFN-γ: able to inhibit
MHC class I [4]; [10]
  upregulation of MHC class I by IFN-γ: completely abolished
MHC class I [4]; unstimulated HUVEC
  MHC class I expression in the absence of IFN-γ: no influence
MHC class II [5]; [9]
  induction of MHC class II by IFN-γ: able to inhibit
MHC class II [5]; [10]
  induction of MHC class II by IFN-γ: able to inhibit
MHC class II [5]; unstimulated HUVEC
  MHC class II expression in the absence of IFN-γ: no influence
ICAM-1 [6]; [9]
  upregulation of ICAM-1 by IFN-γ: able to inhibit
ICAM-1 [6]; [10]
  upregulation of ICAM-1 by IFN-γ: completely abolished
ICAM-1 [6]; unstimulated HUVEC
  ICAM-1 expression in the absence of IFN-γ: no influence
MHC class I [1]; [11]
  MHC class I expression after IFN-γ stimulation: did not significantly inhibit
MHC class I [1]; [12]
  upregulation of MHC class I by IFN-γ: only a marginal influence; also recorded: able to inhibit
MHC class I [1]; PTEC, 100 ng/ml IFN-γ
  upregulation of MHC class I by IFN-γ: not influenced
MHC class II [2]; [11]
  MHC class II expression after IFN-γ stimulation: did not significantly inhibit
MHC class II [2]; [12]
  induction of MHC class II by IFN-γ: able to inhibit
MHC class II [2]; PTEC, 100 ng/ml IFN-γ
  induction of MHC class II by IFN-γ: able to inhibit
ICAM-1 [3]; [11]
  upregulation of ICAM-1 by IFN-γ: significantly inhibited
ICAM-1 [3]; [12]
  upregulation of ICAM-1 by IFN-γ: able to inhibit
ICAM-1 [3]; PTEC, 100 ng/ml IFN-γ
  upregulation of ICAM-1 by IFN-γ: able to inhibit
^125 I-IFN-γ
  binding of 125I-IFN-γ with coincubation of a 3000 fold excess of fluidphase heparin: strongly reduced
^125 I-IFN-γ; absence of fluidphase heparin
  binding of 125I-IFN-γ: can bind
